*1 amine or outer side, *2 acyl side, *3 side chain or, on linkers, in order; H or OH if unused. Where a SMILES comes first, the peptide text is derived from it. [ ]: non-standard residue; d: D form. The star is where a group is joined. d(γGlu) = O=C(O)[C@@H](CCC(=O)[*:2])N[*:1]; Ala(3-yl) = N[C@@H](C*)C(=O)O; dLac = C[C@@H](O)C(=O)O
Assays:
Assay type in all cases: cell-based
[1] = target: T1, murine NOD1 (Mus musculus, UniProt Q8BHB0); assay: NOD1 functional agonist assay, 293mNOD1-SEAP reporter cells; conditions: 293mNOD1 cells, OD above 3*O.D of negative control
T1 construct: expressed in transfected cells; host or cells: HEK293
T1 sequence (Q8BHB0 1-953): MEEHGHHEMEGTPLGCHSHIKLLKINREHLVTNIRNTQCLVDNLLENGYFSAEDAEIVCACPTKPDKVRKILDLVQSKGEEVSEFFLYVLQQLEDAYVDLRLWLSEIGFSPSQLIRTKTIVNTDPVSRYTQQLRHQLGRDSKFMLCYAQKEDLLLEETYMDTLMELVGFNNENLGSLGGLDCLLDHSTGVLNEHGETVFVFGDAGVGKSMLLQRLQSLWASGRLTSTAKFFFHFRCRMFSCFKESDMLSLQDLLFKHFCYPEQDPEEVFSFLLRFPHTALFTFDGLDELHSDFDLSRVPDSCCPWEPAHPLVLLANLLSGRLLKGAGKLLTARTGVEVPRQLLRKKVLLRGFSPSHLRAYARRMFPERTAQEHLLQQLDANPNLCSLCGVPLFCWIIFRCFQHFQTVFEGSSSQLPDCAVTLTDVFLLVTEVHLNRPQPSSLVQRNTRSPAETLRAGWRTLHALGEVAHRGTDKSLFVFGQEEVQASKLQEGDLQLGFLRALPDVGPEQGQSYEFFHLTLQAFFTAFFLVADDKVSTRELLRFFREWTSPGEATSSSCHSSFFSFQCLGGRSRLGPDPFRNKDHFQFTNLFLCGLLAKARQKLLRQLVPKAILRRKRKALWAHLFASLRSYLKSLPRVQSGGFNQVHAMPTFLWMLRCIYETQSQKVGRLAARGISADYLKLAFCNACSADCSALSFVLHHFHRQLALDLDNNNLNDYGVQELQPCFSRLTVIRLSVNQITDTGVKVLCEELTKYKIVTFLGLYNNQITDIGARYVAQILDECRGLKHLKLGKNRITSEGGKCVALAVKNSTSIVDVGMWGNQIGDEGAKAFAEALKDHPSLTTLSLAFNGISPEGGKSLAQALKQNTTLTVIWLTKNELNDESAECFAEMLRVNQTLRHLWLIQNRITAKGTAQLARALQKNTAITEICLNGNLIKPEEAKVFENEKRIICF
Excerpt: (§1) HEK293 cells were stably transfected with plasmid for the overexpression of the NOD1 genes and a reporter plasmid expressing a secreted embryonic alkaline phosphatase (SEAP) gene under the control of a promoter inducible by the transcription factors NF-κB and AP-1. These cells are referred herein as 293hNOD1-SEAP (for cells overexpressing the human NOD1 gene) and 293mNOD1-SEAP (for cells overexpressing the murine NOD1 gene). Upon NOD1 stimulation, these cells induce the activation of NF-κB and AP-1 and subsequently the secretion of SEAP. The reporter protein is easily detectable and measurable when using QUANTI-Blue™ (InvivoGen, San Diego, Calif.), a medium that turns purple/blue in the presence of SEAP.
(§2) The biological activity of the compounds of the invention tested using 293hNOD1 and 293mNOD1 cells. SEAP expression was measured using the commercially available SEAP detection kit (HEK-Blue™ Detection, InvivoGen). The SEAP activity in cells was quantified using the microplate reader (FLUOStar OPTIMA, BMG laboratories), the absorbance values were read using filter with excitation at 620 nm and emission at 655 nm. The results provided in Table 2 were expressed as the concentration were a significant mean optical density (OD) can be observed (above 3*O.D of negative control). As a positive control, the NOD1 pathway was stimulated with commercially available iE-DAP (InvivoGen) and C12-iE-DAP (an acylated derivative of DAP; InvivoGen). As a negative control endotoxin-free water was used. Additionally, 293 cells expressing the SEAP gene but not the NOD1 gene were used as a control.

[2] = target: T2, human NOD1 (Homo sapiens, UniProt Q9Y239); assay: NOD1 functional agonist assay, 293hNOD1-SEAP reporter cells; conditions: 293hNOD1 cells, OD above 3*O.D of negative control
T2 construct: expressed in transfected cells; host or cells: HEK293
T2 sequence (Q9Y239 1-953): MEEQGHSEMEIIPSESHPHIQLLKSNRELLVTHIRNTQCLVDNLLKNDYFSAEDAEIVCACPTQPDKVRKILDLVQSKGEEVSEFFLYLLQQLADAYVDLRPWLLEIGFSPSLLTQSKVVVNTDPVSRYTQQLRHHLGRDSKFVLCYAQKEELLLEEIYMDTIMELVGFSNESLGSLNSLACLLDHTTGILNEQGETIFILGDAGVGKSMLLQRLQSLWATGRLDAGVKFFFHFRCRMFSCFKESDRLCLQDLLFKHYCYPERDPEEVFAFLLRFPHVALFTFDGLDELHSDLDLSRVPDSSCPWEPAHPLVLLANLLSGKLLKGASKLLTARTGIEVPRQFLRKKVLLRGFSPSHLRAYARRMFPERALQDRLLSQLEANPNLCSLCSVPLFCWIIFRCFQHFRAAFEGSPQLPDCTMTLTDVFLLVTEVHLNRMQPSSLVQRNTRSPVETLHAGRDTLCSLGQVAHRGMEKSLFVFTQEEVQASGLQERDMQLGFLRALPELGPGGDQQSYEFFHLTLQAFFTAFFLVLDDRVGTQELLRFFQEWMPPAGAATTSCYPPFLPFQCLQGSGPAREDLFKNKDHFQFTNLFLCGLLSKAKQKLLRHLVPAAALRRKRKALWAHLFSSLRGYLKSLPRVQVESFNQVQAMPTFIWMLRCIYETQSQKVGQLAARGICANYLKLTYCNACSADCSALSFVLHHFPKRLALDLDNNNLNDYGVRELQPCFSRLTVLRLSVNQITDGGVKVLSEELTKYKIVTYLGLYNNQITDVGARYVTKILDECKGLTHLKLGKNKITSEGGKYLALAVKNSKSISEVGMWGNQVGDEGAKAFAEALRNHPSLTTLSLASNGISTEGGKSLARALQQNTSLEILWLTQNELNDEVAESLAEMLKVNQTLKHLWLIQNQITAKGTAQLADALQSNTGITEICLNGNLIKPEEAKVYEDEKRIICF
Excerpt: as §1, §2

[3] = target: T3, hNOD2 (Homo sapiens, UniProt Q9HC29); assay: NOD2 functional agonist assay, 293hNOD2-SEAP reporter cells; conditions: 293hNOD2 cells, OD above 3*O.D of negative control
T3 construct: expressed in transfected cells; host or cells: HEK293
Excerpt: as §1, with “NOD2” for “NOD1”, “293hNOD2-SEAP.” for “293hNOD1-SEAP (for cells overexpressing the human NOD1 gene) and 293mNOD1-SEAP (for cells overexpressing the murine NOD1 gene).”
The biological activity of the compounds using 293hNOD2 cells. SEAP expression was measured using the commercially available SEAP detection kit (HEK-Blue™ Detection, InvivoGen). The SEAP activity in cells was quantified using the microplate reader (FLUOStar OPTIMA, BMG laboratories), the absorbance values were read using filter with excitation at 620 nm and emission at 655 nm. The results provided in Table 3 were expressed as the concentration were a significant mean optical density (OD) can be observed (above 3*O.D of negative control) as the mean optical density. As a positive control, the NOD2 pathway was stimulated with commercially available MDP (InvivoGen) and M-triDAP (InvivoGen). As a negative control endotoxin-free water was used. Additionally, 293 cells expressing the SEAP gene but not the NOD2 gene were used as a control.

T3 sequence (Q9HC29 whole entry): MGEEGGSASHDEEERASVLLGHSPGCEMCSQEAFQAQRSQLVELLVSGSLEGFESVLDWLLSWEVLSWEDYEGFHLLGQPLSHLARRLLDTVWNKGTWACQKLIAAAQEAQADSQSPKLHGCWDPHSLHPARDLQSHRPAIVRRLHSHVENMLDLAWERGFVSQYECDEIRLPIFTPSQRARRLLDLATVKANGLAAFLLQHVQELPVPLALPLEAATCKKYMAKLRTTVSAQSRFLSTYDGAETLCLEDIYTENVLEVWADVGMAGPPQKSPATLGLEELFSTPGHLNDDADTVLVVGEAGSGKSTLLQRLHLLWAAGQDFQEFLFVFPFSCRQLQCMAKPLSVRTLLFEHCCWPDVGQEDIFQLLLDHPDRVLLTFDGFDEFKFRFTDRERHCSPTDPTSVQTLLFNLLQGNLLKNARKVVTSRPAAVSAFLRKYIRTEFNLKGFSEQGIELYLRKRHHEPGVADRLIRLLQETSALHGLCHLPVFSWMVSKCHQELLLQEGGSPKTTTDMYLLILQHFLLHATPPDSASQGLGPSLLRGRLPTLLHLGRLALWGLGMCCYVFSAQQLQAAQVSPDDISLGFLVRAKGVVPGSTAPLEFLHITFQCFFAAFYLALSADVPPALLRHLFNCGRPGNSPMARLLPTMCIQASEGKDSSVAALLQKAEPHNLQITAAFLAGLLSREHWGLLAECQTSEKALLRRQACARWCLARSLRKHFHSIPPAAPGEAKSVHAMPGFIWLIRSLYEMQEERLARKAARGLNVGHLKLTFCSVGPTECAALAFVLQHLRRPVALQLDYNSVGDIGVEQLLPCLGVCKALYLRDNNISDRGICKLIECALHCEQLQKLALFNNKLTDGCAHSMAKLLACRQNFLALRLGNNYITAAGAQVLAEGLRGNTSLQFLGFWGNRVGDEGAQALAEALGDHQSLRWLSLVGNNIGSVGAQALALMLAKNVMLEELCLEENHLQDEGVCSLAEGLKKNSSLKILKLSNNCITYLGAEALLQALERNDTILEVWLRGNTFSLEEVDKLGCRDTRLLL

Structure (SMILES) | mNod1: concentration where a significant mean optical density (OD) can be observed [1] [µg/mL] | hNod1: concentration where a significant mean optical density (OD) can be observed [2] [µg/mL] | hNod2: concentration where a significant mean optical density (OD) can be observed [3] [µg/mL]
CCCCCCC(=O)N[C@@H](C)C(=O)N[C@H](CCC(=O)N[C@H](CSC[C@H](N)C(=O)O)C(=O)NCC(=O)O)C(=O)O [Example 27, N^5-((S)-3-(((R)-2-amino-2-carboxyethyl)thio)-1-((carboxymethyl)amino)-1-oxopropan-2-yl)-N^2-(heptanoyl-L-alanyl)-D-glutamine] | 1 | 1 | 
CCCCCCCCCCCC(=O)N[C@@H](C)C(=O)N[C@H](CCC(=O)N[C@H](CSC[C@H](N)C(=O)O)C(=O)NCC(=O)O)C(=O)O [Example 28, N^5-((S)-3-(((R)-2-amino-2-carboxyethyl)thio)-1-((carboxymethyl)amino)-1-oxopropan-2-yl)-N^2-(dodecanoyl-L-alanyl)-D-glutamine] | 0.001 | 0.001 | 
C[C@H](NC(=O)[C@@H](C)O)C(=O)N[C@H](CCC(=O)N[C@H](CSC[C@H](N)C(=O)O)C(=O)NCC(=O)O)C(=O)O [Example 30, N^5-((S)-3-(((R)-2-amino-2-carboxyethyl)thio)-1-((carboxymethyl)amino)-1-oxopropan-2-yl)-N^2-(((R)-2-hydroxypropanoyl)-L-alanyl)-D-glutamine] (H-[dLac]A[d(γGlu)][dC](Ala(3-yl))G-OH) | 10 | 10 | 
CC(=O)N[C@H]1[C@@H](OCc2ccccc2)O[C@H](CO)[C@@H](O)[C@@H]1O[C@H](C)C(=O)N[C@@H](C)C(=O)N[C@H](CCC(=O)N[C@H](CSC[C@H](N)C(=O)O)C(=O)O)C(=O)O [Example 31, N^2-(((R)-2-(((2S,3R,4R,5S,6R)-3-acetamido-2-(benzyloxy)-5-hydroxy-6-(hydroxymethyl)tetrahydro-2H-pyran-4-yl)oxy)propanoyl)-L-alanyl)-N^5-((S)-2-(((R)-2-amino-2-carboxyethyl)thio)-1-carboxyethyl)-D-glutamine] | 1 | 1 | 0.1
CC(=O)N[C@H]1[C@@H](OCc2ccccc2)O[C@H](CO)[C@@H](O)[C@@H]1O[C@H](C)C(=O)N[C@@H](C)C(=O)N[C@H](CCC(=O)N[C@H](CSC[C@H](N)C(=O)O)C(=O)NCC(=O)O)C(=O)O [Example 32, N^2-(((R)-2-(((2S,3R,4R,5S,6R)-3-acetamido-2-(benzyloxy)-5-hydroxy-6-(hydroxymethyl)tetrahydro-2H-pyran-4-yl)oxy)propanoyl)-L-alanyl)-N^5-((S)-3-(((R)-2-amino-2-carboxyethyl)thio)-1-((carboxymethyl)amino)-1-oxopropan-2-yl)-D-glutamine] | 0.1 | 0.1 | 0.1
CC(=O)N[C@H]1[C@@H](OCc2ccccc2)O[C@H](CO)[C@@H](O)[C@@H]1O[C@H](C)C(=O)N[C@@H](C)C(=O)N[C@H](CCC(=O)N[C@H](CSC[C@H](N)C(=O)O)C(=O)N[C@H](C)C(=O)O)C(=O)O [Example 33, N2-(((R)-2-(((2S,3R,4R,5S,6R)-3-acetamido-2-(benzyloxy)-5-hydroxy-6-(hydroxymethyl)tetrahydro-2H-pyran-4-yl)oxy)propanoyl)-L-alanyl)-N^5-((S)-3-(((R)-2-amino-2-carboxyethyl)thio)-1-(((R)-1-carboxyethyl)amino)-1-oxopropan-2-yl)-D-glutamine] | 1 | 1 | 1
N[C@H](CCC(=O)N[C@@H](COC[C@@H](N)C(=O)O)C(=O)O)C(=O)O [Example 34, N^5-((S)-2-((R)-2-amino-2-carboxyethoxy)-1-carboxyethyl)-D-glutamine] | 10 | 10 | 
CCCCCCCCCCCCCC(=O)N[C@H](CCC(=O)N[C@@H](COC[C@@H](N)C(=O)O)C(=O)O)C(=O)O [Example 35, N^5-((S)-2-((R)-2-amino-2-carboxyethoxy)-1-carboxyethyl)-N^2-tetradecanoyl-D-glutamine] | 0.01 | 0.01 | 
C[C@H](N)C(=O)N[C@H](CCC(=O)N[C@@H](COC[C@@H](N)C(=O)O)C(=O)O)C(=O)O [Example 36, N^2-(L-alanyl)-N^5-((S)-2-((R)-2-amino-2-carboxyethoxy)-1-carboxyethyl)-D-glutamine] | 100 | 100 | 

Reference: patent US20170210778A1, “NOVEL COMPOUNDS” (The Provost, Fellows, Foundation Scholars, and the other …, priority 2014, published 2017)
